From ChEMBL document CHEMBL1201862, “PubChem BioAssay data set” (2004)
Active and inactive are the calls of the source.

Legend:
[1] = target: T1, Rac GTPase-activating protein 1 (Homo sapiens, UniProt Q9H0H5); assay: MgcRacGAP GTPase-activating activity inhibitors, confirmation, biochemical, ADP Hunter fluorescence, primary and confirmatory (AID 624330); format: functional
T1 sequence (Q9H0H5 whole entry): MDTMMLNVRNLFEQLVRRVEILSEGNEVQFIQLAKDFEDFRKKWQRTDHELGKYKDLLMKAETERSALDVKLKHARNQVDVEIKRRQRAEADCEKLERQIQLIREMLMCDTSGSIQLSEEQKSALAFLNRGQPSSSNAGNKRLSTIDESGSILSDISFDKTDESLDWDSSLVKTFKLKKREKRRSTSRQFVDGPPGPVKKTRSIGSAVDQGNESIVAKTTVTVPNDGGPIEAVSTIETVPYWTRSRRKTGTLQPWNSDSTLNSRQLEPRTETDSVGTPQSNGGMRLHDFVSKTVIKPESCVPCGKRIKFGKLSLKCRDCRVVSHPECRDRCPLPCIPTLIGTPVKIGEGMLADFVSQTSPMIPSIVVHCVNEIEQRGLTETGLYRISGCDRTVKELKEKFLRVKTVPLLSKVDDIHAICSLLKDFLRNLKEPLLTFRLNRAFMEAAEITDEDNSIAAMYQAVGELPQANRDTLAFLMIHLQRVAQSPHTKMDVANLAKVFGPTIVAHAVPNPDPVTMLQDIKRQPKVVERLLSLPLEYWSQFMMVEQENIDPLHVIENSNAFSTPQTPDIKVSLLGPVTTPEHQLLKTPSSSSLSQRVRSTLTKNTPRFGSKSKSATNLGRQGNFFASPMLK

[2] = target: FAD-linked sulfhydryl oxidase ALR (Homo sapiens, UniProt P55789); assay: inhibitors of human ALR sulfhydryl oxidase, dose response, biochemical, H2O2 detection, luminescence, cherry-pick (AID 493248)
Sequence of FAD-linked sulfhydryl oxidase ALR (P55789 whole entry): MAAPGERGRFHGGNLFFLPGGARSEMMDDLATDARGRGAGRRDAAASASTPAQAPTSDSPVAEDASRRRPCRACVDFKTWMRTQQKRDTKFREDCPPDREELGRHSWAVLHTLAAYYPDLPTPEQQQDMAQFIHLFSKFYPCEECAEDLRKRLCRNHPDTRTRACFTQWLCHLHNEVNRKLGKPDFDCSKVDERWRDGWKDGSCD

[3] = cytotoxicity toward DRD oncogenic fibroblasts, dose response, cell-based, non-viral oncogenic, luminescence (AID 1934); format: functional; settings: Homo sapiens
Protein RecA = target: T2, Protein RecA (Mycobacterium tuberculosis, UniProt P9WHJ3); assay: Fluorescence Cell-Free Homogeneous Dose Retest to Identify Inhibitors of RecA-Intein Splicing Activity. [Related pubchem assays (depositor defined):AID2097, AID2223, AID489010, AID492950]; format: functional
T2 sequence (P9WHJ3 whole entry): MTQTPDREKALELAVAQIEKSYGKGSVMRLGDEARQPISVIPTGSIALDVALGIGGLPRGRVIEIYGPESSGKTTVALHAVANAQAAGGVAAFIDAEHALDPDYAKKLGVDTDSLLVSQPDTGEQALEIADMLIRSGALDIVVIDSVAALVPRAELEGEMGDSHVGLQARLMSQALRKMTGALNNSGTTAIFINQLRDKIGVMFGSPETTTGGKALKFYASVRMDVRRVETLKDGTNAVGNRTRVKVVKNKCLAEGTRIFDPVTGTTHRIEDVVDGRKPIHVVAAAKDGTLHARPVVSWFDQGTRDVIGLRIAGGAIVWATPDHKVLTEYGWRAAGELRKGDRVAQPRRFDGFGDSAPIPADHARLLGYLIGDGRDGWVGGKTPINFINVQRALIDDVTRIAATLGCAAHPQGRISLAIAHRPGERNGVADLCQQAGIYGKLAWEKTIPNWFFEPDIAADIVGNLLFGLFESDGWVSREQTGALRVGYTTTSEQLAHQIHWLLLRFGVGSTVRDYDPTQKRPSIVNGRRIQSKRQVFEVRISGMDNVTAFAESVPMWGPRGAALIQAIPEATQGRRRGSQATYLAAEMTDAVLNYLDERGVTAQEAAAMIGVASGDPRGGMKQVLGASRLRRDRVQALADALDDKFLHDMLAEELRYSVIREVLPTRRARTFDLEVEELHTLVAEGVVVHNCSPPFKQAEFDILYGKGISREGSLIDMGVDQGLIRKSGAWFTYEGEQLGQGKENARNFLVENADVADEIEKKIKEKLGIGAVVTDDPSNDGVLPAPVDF

[4] = target: T3, Replicative DNA helicase DnaB (Mycobacterium tuberculosis, UniProt P9WMR3); assay: DnaB intein splicing inhibitors, dose response, biochemical, cell-free fluorescence (AID 449749); format: functional
T3 sequence (P9WMR3 whole entry): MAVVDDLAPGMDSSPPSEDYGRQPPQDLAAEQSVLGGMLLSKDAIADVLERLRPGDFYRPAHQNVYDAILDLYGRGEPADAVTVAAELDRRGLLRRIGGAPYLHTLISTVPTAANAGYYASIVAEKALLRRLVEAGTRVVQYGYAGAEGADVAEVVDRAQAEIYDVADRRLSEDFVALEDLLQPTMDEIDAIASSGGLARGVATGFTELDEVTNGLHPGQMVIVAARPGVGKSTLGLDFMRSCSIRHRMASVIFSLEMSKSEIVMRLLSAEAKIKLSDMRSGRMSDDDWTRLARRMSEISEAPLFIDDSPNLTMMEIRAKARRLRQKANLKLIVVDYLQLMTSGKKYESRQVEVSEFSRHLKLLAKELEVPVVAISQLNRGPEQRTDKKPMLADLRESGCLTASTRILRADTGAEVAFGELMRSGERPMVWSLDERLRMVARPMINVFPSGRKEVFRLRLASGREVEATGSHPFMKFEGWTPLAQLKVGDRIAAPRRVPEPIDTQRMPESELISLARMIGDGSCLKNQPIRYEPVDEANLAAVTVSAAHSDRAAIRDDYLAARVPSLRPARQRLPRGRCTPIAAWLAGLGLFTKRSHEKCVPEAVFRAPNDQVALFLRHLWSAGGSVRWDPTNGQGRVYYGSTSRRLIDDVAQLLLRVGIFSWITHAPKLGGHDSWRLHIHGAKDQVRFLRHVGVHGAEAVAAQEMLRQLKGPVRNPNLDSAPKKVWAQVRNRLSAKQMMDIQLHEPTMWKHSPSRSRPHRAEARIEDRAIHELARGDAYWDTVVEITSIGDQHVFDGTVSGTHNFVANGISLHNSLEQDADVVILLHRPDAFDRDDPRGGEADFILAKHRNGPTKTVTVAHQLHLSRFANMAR

BJ [5] = assay: cytotoxicity toward BJ-TERT-LT-ST fibroblasts, dose response, cell-based, RAS-independent, luminescence (AID 1935); format: functional; settings: Homo sapiens;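 also: BJ fibroblasts immortalized with TERT plus LT and ST oncogenes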
BJ [6] = assay: cells; format: functional, cell-based; settings: Homo sapiens
BJ [7] = assay: cytotoxicity toward BJ-TERT fibroblasts, dose response, cell-based, RAS-independent, luminescence (AID 1933); format: functional; settings: Homo sapiens
H9c2 = assay: cells; format: functional, cell-based; settings: Rattus norvegicus, H9c2, Myocardium;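 also: confirmatory concentration-response retest of ultra-high-throughput screening hits for modulation of myocardial damage; cell death induced by hydrogen peroxide oxidative stress; compound pretreatment for 60 min then peroxide exposure for 2 h; potency is for protecting the cells against peroxide damage rather than for killing them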
[8] = microbe, parasite or virus in culture; format: functional; settings: Mycobacterium tuberculosis
INS1 = assay: beta cell apoptosis inhibitors, cytokine rescue, dose response, luminescence, retest (AID 449756); format: functional, cell-based; settings: Rattus norvegicus;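 also: cell death triggered by IL-1 beta plus TNF-alpha plus IFN-gamma mixture; protective hits raise ATP signal compared with cytokine alone wells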
[9] = Luminescence Cell-Based Dose Retest to Confirm Inhibitors of Cancer Stem Cells. [Related pubchem assays (depositor defined):AID2717, AID2721]; format: functional; settings: Homo sapiens
[10] = target: T4, Zinc finger protein mex-5 (Caenorhabditis elegans, UniProt Q9XUB2); assay: MEX-5/TCR-2 RNA interaction inhibitors, dose response, biochemical, C. elegans, fluorescence polarization (AID 1960)
T4 sequence (Q9XUB2 whole entry): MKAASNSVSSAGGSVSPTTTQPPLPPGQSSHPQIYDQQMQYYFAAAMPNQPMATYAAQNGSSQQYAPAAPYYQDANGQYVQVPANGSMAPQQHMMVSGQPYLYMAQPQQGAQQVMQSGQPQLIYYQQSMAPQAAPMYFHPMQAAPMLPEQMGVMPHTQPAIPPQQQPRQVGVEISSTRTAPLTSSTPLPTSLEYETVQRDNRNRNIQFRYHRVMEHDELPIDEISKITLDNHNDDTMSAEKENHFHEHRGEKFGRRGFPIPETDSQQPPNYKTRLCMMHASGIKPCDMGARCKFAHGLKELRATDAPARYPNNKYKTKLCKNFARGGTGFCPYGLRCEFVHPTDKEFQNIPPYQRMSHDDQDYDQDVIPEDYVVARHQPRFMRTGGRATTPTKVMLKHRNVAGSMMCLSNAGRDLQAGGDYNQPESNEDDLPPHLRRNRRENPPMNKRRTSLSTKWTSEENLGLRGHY

[11] = target: T5, RNA-binding protein pos-1 (Caenorhabditis elegans, UniProt G5EF15); assay: inhibitors of POS-1/mex-3 RNA binding, dose response, biochemical, fluorescence polarization (AID 1964);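 also: purified POS-1 fused to maltose binding protein made in E. coli; potency of compounds blocking POS-1 binding to fluorescent RNA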
T5 sequence (G5EF15 whole entry): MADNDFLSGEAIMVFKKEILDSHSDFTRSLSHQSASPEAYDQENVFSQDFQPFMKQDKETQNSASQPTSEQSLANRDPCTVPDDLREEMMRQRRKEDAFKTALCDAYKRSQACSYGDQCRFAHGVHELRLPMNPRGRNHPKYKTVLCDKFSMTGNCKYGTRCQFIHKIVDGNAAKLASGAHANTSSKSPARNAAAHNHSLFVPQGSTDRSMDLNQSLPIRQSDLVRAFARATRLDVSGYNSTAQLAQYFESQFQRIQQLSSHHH

Large T antigen = Large T antigen (Simian virus 40, UniProt P03070); format: functional, Betapolyomavirus macacae;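 also: Confirmatory-stage PubChem screen for compounds that inhibit SV40 T antigen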
Sequence of Large T antigen (P03070 whole entry): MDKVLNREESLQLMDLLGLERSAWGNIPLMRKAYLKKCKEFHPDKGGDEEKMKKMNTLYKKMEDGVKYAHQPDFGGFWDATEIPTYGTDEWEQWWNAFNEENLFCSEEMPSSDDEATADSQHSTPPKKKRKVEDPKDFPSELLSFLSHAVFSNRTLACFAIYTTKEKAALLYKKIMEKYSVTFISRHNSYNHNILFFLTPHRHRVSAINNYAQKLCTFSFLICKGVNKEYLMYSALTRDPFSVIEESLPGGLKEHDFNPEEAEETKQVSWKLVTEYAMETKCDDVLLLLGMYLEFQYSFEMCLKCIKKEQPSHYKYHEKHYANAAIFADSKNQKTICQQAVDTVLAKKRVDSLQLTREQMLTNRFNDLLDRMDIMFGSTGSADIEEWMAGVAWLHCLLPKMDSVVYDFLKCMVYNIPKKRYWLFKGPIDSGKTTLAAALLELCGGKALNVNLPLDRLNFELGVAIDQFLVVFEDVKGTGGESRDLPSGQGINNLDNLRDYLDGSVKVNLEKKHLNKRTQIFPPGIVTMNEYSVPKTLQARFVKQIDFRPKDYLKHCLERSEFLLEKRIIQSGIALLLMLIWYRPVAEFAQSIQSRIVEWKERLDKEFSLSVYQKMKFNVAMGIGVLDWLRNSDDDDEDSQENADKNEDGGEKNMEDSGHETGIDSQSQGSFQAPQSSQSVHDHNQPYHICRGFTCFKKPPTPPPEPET

[12] = HEp-2 cell cytotoxicity, dose response, cytotoxicity control for RSV inhibitor project, HTS (AID 2410); format: functional; settings: human respiratory syncytial virus
[13] = ZM109 Env clade C HIV-1 fusion inhibitors, dose response, HeLa effector, CEM target cells, luciferase, cherry-pick (AID 652058); format: functional, cell-based
[14] = inhibitors of HIV Env-driven cell fusion, dose response, cherry-pick (AID 652057); format: functional, cell-based
[15] = target: Luciferin 4-monooxygenase (Photinus pyralis, UniProt P08659); assay: firefly luciferase enzyme inhibitors, dose response, biochemical, luminescence (AID 1891)
Sequence of Luciferin 4-monooxygenase (P08659 whole entry): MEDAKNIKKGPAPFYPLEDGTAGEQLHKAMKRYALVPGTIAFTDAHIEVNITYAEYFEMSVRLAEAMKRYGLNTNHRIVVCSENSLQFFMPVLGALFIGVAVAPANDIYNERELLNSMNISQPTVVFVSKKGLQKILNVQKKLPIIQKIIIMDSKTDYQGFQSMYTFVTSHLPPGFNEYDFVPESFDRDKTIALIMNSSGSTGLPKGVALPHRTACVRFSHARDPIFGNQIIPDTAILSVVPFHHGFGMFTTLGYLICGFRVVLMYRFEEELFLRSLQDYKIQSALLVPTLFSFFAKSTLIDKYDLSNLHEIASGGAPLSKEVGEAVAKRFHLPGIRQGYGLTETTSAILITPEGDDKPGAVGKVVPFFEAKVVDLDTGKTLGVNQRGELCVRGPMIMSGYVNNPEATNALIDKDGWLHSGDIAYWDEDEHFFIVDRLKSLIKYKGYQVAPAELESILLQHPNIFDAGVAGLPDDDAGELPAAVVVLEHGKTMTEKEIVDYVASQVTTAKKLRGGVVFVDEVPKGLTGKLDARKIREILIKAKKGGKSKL

[16] = Luminescence Cell-Based Dose Confirmation HTS to Identify Inhibitors of Platelet Dense Granule Release. [Related pubchem assays: 1663 (Primary HTS), 1678 (Summary of Project)]; format: functional

CSc1ccc(CN2CCC(N3CC(C)OC(C)C3)CC2)cc1 (stereo not given)
IC50 [1]: 72.4 µM (active)

COC(=O)c1ccc(CSc2nc3ccccc3c(=O)n2Cc2ccco2)o1
AC50 [2]: 4.51 µM (active)

O=C1c2cc([N+](=O)[O-])ccc2-c2ncccc21
EC50 [3]: > 150 µM (not active) | EC50 (Protein RecA): 11.1 µM (active) | AC50 [4]: 36.7 µM (active) | EC50 (BJ [5]): > 150 µM (not active) | EC50 (BJ [6]): > 150 µM (not active) | EC50 (BJ [7]): 24.4 µM (active)

Cn1c(=O)c2c(nc(NCc3ccc4c(c3)OCO4)n2C)n(C)c1=O
IC50 (H9c2): 36.1 µM (inactive)

COc1cc(C#Cc2c(-c3cncn3C)n(C)c3ccc(-c4cnc(N5CCOCC5)nc4)cc23)cc(OC)c1
CC50 [8]: 29.3 µM (active)

COCc1n[nH]c2c1C(c1ccccc1OC)C(C#N)=C(N)O2 (stereo not given)
EC50 (Protein RecA): 4.77 µM (active) | AC50 [4]: 22 µM (active)

COc1ccc(NC2CCCN(C(=O)CCc3cccc(F)c3)C2)cc1 (stereo not given)
IC50 [1]: 74.6 µM (active)

Cc1cc(-c2cc(C)c(N)cc2C)c(C)cc1N
IC50 [1]: 101 µM (active)

O=C(C#Cc1ccccc1)Nc1cccc(F)c1
AC50 (INS1): 8.05 µM (active) | AC50 [9]: 2.35 µM (active) | AC50 [2]: 2 µM (active)

C=CCn1c(SCC(=O)Nc2ccc(N(C)C)cc2)nnc1-c1cccc(C)c1
IC50 [1]: 42.8 µM (active)

COc1cc(/C=N/Nc2nc(O)nnc2C)ccc1O
AC50 [2]: 4.13 µM (active) | EC50 [10]: 31.1 µM (active) | EC50 [11]: 56.8 µM (active) | IC50 (Large T antigen): 6.41 µM (active)

O=c1[nH]n(Cc2ccccc2)c(=O)c2ccccc12
IC50 (H9c2): > 79 µM (inactive)

COc1cc(-c2nc3cnccn3c2NC(C)(C)CC(C)(C)C)ccc1O
AC50 [2]: 4.22 µM (active)

COc1cccc(-c2ncc3ccccn23)c1
IC50 [1]: 136 µM (active) | CC50 [12]: 44.1 µM (active)

NS(=O)(=O)c1ccc(CCNC(=O)CN2CCN(c3ccccc3O)CC2)cc1
AC50 [2]: 3.94 µM (active)

COc1cc(N=Nc2c(C)n(C)n(-c3ccccc3)c2=O)ccc1N
IC50 [1]: 43.4 µM (active)

CCOC(=O)c1cc(-c2ccc(/C=N\n3cnnc3)o2)ccc1Cl
IC50 (H9c2): > 79 µM (inactive)

COC(=O)N1CCc2c(sc(NC(=O)C3=COCCO3)c2C#N)C1
EC50 [3]: 12.5 µM (active) | EC50 (BJ [5]): 16.1 µM (active) | EC50 (BJ [6]): 48.9 µM (active) | EC50 (BJ [7]): 8.87 µM (inconclusive)

O=C(COC(=O)Cc1nnc(O)c2ccccc12)Nc1c(Br)cc([N+](=O)[O-])cc1Br
IC50 (H9c2): > 79 µM (inactive)

O=C(CN(c1ccc2c(c1)OCCO2)S(=O)(=O)c1ccccc1)Nc1ccc2c(c1)OCO2
IC50 (H9c2): > 79 µM (inactive)

C[C@@H]1CN([C@H](C)CO)C(=O)c2cc(C#Cc3ccncc3)cnc2O[C@@H]1CN(C)S(=O)(=O)c1ccccc1F
AC50 [13]: 25.1 µM (active) | AC50 [14]: 30 µM (active)

N#CCSc1nc2cc(C(=O)N3CCC(C(N)=O)CC3)ccc2c2nc3ccccc3n12
IC50 (H9c2): > 79 µM (inactive)

O=C(c1[nH]nc2c1CCC2)N1CCCC(Nc2cccc(F)c2)C1 (stereo not given)
AC50 [2]: 19.5 µM (active)

COc1ccc(-c2cc(-c3nnc(S)n3-c3ccccc3OC)[nH]n2)cc1
AC50 [2]: 41.1 µM (active)

CCOc1cc(C2C(C#N)=C(N)Oc3[nH]nc(CC)c32)ccc1OCCN1CCOCC1 (stereo not given)
EC50 (Protein RecA): 7.2 µM (active) | AC50 [4]: 27.2 µM (active)

N#Cc1c(N)n(CCOC(=O)c2ccc(Cl)cc2)c2nc3ccccc3nc12
EC50 (Protein RecA): 1.8 µM (active) | AC50 [4]: 3.18 µM (active)

COc1ccc(NC(=O)NS(=O)(=O)c2ccc(C)cc2)cc1OC
IC50 [1]: 36 µM (active)

COc1cc(-c2nnc(-c3cc(OC)c(OC)c(OC)c3)o2)cc(OC)c1OC
IC50 (H9c2): > 79 µM (inactive) | EC50 [15]: > 112 µM (not active) | EC50 [16]: 41 µM (active)

CCN1C(=O)[C@H]2[C@H]3CN=C(SCc4ccc(C#N)cc4)N3[C@@](Cc3ccccc3)(C(=O)OC)[C@H]2C1=O
IC50 (H9c2): > 79 µM (inactive)

Cc1cc(-c2nnc(S)n2/N=C/c2ccc(Cl)c([N+](=O)[O-])c2)[nH]n1
AC50 [2]: 3.45 µM (active)
